In the supplement of paper PMC10307832:

Experiments:
Assay in all cases: relative viability (nuclei count vs DMSO), 5 days (fraction); higher = more cells survive
Ricolinostat + Alpelisib = compound: O=C(CCCCCCNC(=O)c1cnc(N(c2ccccc2)c2ccccc2)nc1)NO [Ricolinostat] + Cc1nc(NC(=O)N2CCC[C@H]2C(N)=O)sc1-c1ccnc(C(C)(C)C(F)(F)F)c1 [Alpelisib] (partner 2 µM)
How it was run: (§1)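 Five library-drug doses in √10 steps were combined with a fixed anchor-drug dose, or a single drug was given alone, by pin tool to lung cancer cell lines in 1536-well plates the day after seeding. Nuclei were stained and counted after 5 days. Relative viability is the nuclei count in treated wells over that in vehicle wells, taken as the median of duplicate plates.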

[1] = compound: O=C(CCCCCCNC(=O)c1cnc(N(c2ccccc2)c2ccccc2)nc1)NO [Ricolinostat] + Cc1cc(Nc2cc(N3CCN(C)CC3)nc(Sc3ccc(NC(=O)C4CC4)cc3)n2)n[nH]1 [Tozasertib] (partner 0.1 µM)
How it was run: as §1

[2] = compound: C1=CC=C(C(=C1)C2=CC=C(C=C2)C3=CSC4=C3C(=C(C(=O)N4)C#N)O)O + CC1(C)CCC(c2ccc(Cl)cc2)=C(CN2CCN(c3ccc(C(=O)NS(=O)(=O)c4ccc(N[C@H](CCN5CCOCC5)CSc5ccccc5)c(S(=O)(=O)C(F)(F)F)c4)cc3)CC2)C1 [Navitoclax] (partner 0.5 µM)
How it was run: as §1

[3] = compound: O=C(CCCCCCNC(=O)c1cnc(N(c2ccccc2)c2ccccc2)nc1)NO [Ricolinostat] + CC1(C)CCC(c2ccc(Cl)cc2)=C(CN2CCN(c3ccc(C(=O)NS(=O)(=O)c4ccc(N[C@H](CCN5CCOCC5)CSc5ccccc5)c(S(=O)(=O)C(F)(F)F)c4)cc3)CC2)C1 [Navitoclax] (partner 0.5 µM)
How it was run: as §1

| Cell Line | relative viability (Ricolinostat + Alpelisib; first compound 0.08 µM) | relative viability (Ricolinostat + Alpelisib; first compound 0.253 µM) | relative viability (Ricolinostat + Alpelisib; first compound 0.8 µM) | relative viability (Ricolinostat + Alpelisib; first compound 2.53 µM) | relative viability ([1]; first compound 0.08 µM) | relative viability ([1]; first compound 0.253 µM) | relative viability ([1]; first compound 0.8 µM) | relative viability ([1]; first compound 2.53 µM) | relative viability ([2]; first compound 0.08 µM) | relative viability ([2]; first compound 0.253 µM) | relative viability ([2]; first compound 0.8 µM) | relative viability ([2]; first compound 2.53 µM) | relative viability ([2]; first compound 8 µM) | relative viability ([3]; first compound 0.08 µM) | relative viability ([3]; first compound 0.253 µM) | relative viability ([3]; first compound 0.8 µM) | relative viability ([3]; first compound 2.53 µM) |
| --- | --- | --- | --- | --- | --- | --- | --- | --- | --- | --- | --- | --- | --- | --- | --- | --- | --- |
| HOP-62 | 0.932 | 0.901 | 0.844 | 0.848 | 0.374 | 0.344 | 0.35 | 0.312 | 1.22 | 1.1 | 1.04 | 1.18 | 0.922 | 0.887 | 1.01 | 1.03 | 1.08 |
| IA-LM | 0.616 | 0.819 | 0.623 | 0.363 |  |  |  |  | 0.696 | 1.06 | 0.76 | 0.797 | 0.399 | 0.802 | 0.626 | 0.747 | 0.603 |
| LC-2-ad | 0.786 | 0.853 | 0.839 | 0.663 | 0.474 | 0.412 | 0.371 | 0.299 | 0.464 | 0.382 | 0.687 | 0.421 | 0.361 | 0.535 | 0.485 | 0.506 | 0.334 |
| LCLC-97TM1 | 0.177 | 0.288 | 0.188 | 0.306 | 0.171 | 0.2 | 0.149 | 0.153 | 0.379 | 0.719 | 0.514 | 0.393 | 0.453 | 0.41 | 0.431 | 0.485 | 0.357 |
| LCLC-103H | 0.814 | 0.971 | 0.883 | 0.959 | 0.443 | 0.401 | 0.393 | 0.337 |  |  |  |  |  |  |  |  |  |
| LK-2 |  | 0.995 | 1.07 | 1.62 | 0.181 | 0.181 | 0.202 | 0.174 |  |  | 0.895 | 0.87 | 0.683 | 0.841 | 0.898 | 0.811 | 0.842 |
| LOU-NH91 |  | 0.735 | 0.709 | 0.699 | 0.571 | 0.639 | 0.595 | 0.528 | 0.693 | 0.722 | 0.658 | 0.638 | 0.551 |  | 0.777 | 0.642 | 0.6 |
| LU99A | 0.438 | 0.512 | 0.362 | 0.437 | 0.258 | 0.276 | 0.224 | 0.239 | 0.64 | 0.878 | 0.804 | 0.791 | 0.769 | 0.782 | 0.701 | 0.603 | 0.491 |
| LXF-289 | 0.961 | 1 | 1.06 | 1.01 | 0.192 | 0.201 | 0.22 | 0.19 | 0.951 | 0.968 | 0.996 | 0.994 | 0.967 | 0.904 | 0.927 | 0.914 | 0.878 |
| NCI-H23 | 0.56 | 0.644 | 0.882 | 0.703 | 0.399 | 0.321 | 0.393 | 0.254 | 0.883 | 0.746 | 1 | 0.754 | 0.468 | 0.82 | 0.791 | 0.924 | 0.932 |
| NCI-H322M |  | 0.829 | 0.795 | 0.715 |  | 0.504 | 0.517 | 0.497 | 1.35 | 1.24 | 1.03 | 1.32 | 1.09 |  | 1.2 | 1.27 | 1.08 |
| NCI-H358 | 0.733 | 0.997 | 0.952 | 1.05 | 0.0975 | 0.0893 | 0.107 | 0.0955 |  |  |  |  |  |  |  |  |  |
| NCI-H441 | 0.597 | 0.596 | 0.803 | 0.539 |  | 0.69 | 0.561 | 0.474 |  | 0.644 |  | 0.837 | 0.604 | 0.77 | 0.411 | 0.798 | 0.357 |
| NCI-H460 | 0.321 | 0.461 | 0.421 | 0.402 | 0.549 | 0.46 | 0.558 | 0.186 |  | 0.414 | 1.43 | 1.31 | 0.271 | 1.12 | 0.93 | 1.08 | 1.21 |
| NCI-H520 |  | 0.765 | 0.954 | 0.852 |  | 0.374 | 0.345 | 0.345 | 1.08 | 1.15 | 1.2 | 1.11 | 0.891 |  | 1.11 | 1.01 | 1.02 |
| NCI-H522 |  |  |  |  | 0.616 | 0.565 | 0.54 | 0.641 |  |  |  |  |  |  |  |  |  |
| NCI-H596 | 0.429 | 0.492 | 0.446 | 0.463 | 0.977 | 1.08 | 0.983 | 0.859 | 0.791 | 1.32 | 0.955 | 0.951 | 0.787 | 0.951 | 0.954 | 0.858 | 0.887 |
| NCI-H650 |  | 1.18 | 0.922 | 0.877 | 0.671 | 0.675 | 0.673 | 0.467 |  |  |  |  |  |  |  |  |  |
| NCI-H661 |  | 0.597 | 0.642 | 0.844 | 0.354 | 0.364 | 0.288 | 0.281 |  |  |  |  |  |  |  |  |  |
| NCI-H1299 | 1.06 | 0.99 | 0.988 | 0.944 |  |  |  |  | 1.12 | 1.02 | 1.04 | 1.1 | 1.07 | 0.987 | 0.987 | 1.02 | 1.01 |
| NCI-H1563 | 0.916 | 0.994 | 0.862 | 0.857 |  |  |  |  |  |  |  |  |  |  |  |  |  |
| NCI-H1623 |  |  |  |  | 0.489 | 0.462 | 0.477 | 0.424 |  |  |  |  |  |  |  |  |  |
| NCI-H1648 |  |  |  |  | 0.273 | 0.536 | 0.366 | 0.237 |  |  |  |  |  |  |  |  |  |
| NCI-H1650 |  |  |  |  | 0.428 | 0.431 | 0.265 | 0.256 |  | 1.25 | 1.23 | 1.15 | 0.865 | 0.948 | 1.19 | 1.12 | 0.82 |
| NCI-H1703 |  | 0.316 | 0.401 | 0.377 |  |  |  |  | 0.989 | 1.04 | 1.2 | 0.93 | 0.962 |  | 0.978 | 1.05 | 1.54 |
| NCI-H2342 |  |  |  |  | 0.496 | 0.461 | 0.401 | 0.426 |  |  |  |  |  |  |  |  |  |
| SW 900 |  |  |  |  | 0.596 | 0.509 | 0.393 | 0.459 |  |  |  |  |  |  |  |  |  |
